B1: G-CSF: granulocyte-colony stimulating factor, protein that selectively stimulates production of white blood cells; positive control (protein, chains of the INN, looked up)
chain: MTPLGPASSLPQSFLLKCLEQVRKIQGDGAALQEKLCATYKLCHPEELVLLGHSLGIPWAPLSSCPSQALQLAGCLSQLHSGLFLYQGLLQALEGISPELGPTLDTLQLDVADFATTIWQQMEELGMAPALQPTQGAMPAFASAFQRRAGGVLVASHLQSFLEVSYRVLRHLAQP
modifications: N-terminal methionine, non-glycosylated

Columns and labels:
white blood cells = experiment: Therapeutical effect on white blood cells of mice pretreated with CTX; type: in vivo, CDF1 male mice; conditions: for number of white blood cell account, Day 6: Day 6: after CTX 30 mg/kg IP daily for 6 days, before therapeutical treatment started on 7th day
Procedure: This activity was determined using CDF1 male mice: mice were grouped and treated with daily CTX IP injection of 30 mg/kg for 6 days. […] Positive control group was treated with daily subcutaneously injection of 20 μg/kg G-CSF. Peripheral blood samples were collected and blood cells counted on the 10th day.

[1] = tested on: mouse peripheral white blood cells; experiment: Activity of increasing white blood cells (WBC) in mice; type: in vivo, CDF1 male mice; conditions: peripheral blood on day 7
Procedure: This activity was determined using CDF1 male mice (18-20 g): mice were grouped as: vehicle, 30 mg/kg cyclophosphamide (CTX), 15 mg/kg test compounds. The mice were treated by IP injection: test compounds on day 1, 3, and 5 for three doses, vehicle and CTX daily for 6 days. On day 7, peripheral blood samples were collected and blood cells counted.

[2] = tested on: white blood cells of beagle dog; experiment: Activity of increasing WBC in dogs; type: in vivo; conditions: for WBC: blood count day 5; for % increase (compared with the control): day 5
Procedure: The effect of the test compounds was tested on beagle dog with a daily IV injection at different doses for four days. The blood account was done at day 5.

Molecule | number of white blood cell account, Day 6 (white blood cells) | number of white blood cell account, Day 10 (white blood cells; Day 10: CTX 30 mg/kg IP daily for 6 days only) | WBC ([1]; CTX 30 mg/kg IP daily for 6 days) | number of white blood cell account, Day 10 (white blood cells; Day 10: CTX 30 mg/kg x 6 days, then test compound 15 mg/kg daily for 3 days from day 7) | WBC ([2]; 1 mg/kg daily IV for four days) | % increase (compared with the control) ([2]; 1 mg/kg daily IV for four days) [%] | WBC ([2]; 2 mg/kg daily IV for four days) | % increase (compared with the control) ([2]; 2 mg/kg daily IV for four days) [%] | WBC ([2]; 4 mg/kg daily IV for four days) | % increase (compared with the control) ([2]; 4 mg/kg daily IV for four days) [%] | WBC ([2]; 8 mg/kg daily IV for four days) | % increase (compared with the control) ([2]; 8 mg/kg daily IV for four days) [%] | effect on white blood accounts in dogs (in words) ([2]; daily IV, 1-8 mg/kg, four days) | WBC ([1]; test compound 15 mg/kg IP on day 1, 3 and 5) | number of white blood cell account, Day 10 (white blood cells; Day 10: CTX 30 mg/kg x 6 days, then G-CSF 20 μg/kg daily subcutaneously (positive control))
O=P1(N(CCCl)CCCl)NCCCO1 (centres unmarked) [CTX, cyclophosphamide, reference compound] | 1.5 ± 0.2 ×10^9/L | 4.8 ± 0.8 ×10^9/L | 1.41 ± 0.50 ×10^9/L | – | – | – | – | – | – | – | – | – | – | – | –
COc1ccc(-n2c3cssc-3c(NC(=O)c3cc(C(F)(F)F)cc(C(F)(F)F)c3)c2=O)c(OC)c1 [compound 0058, N-[4-(2,4-Dimethoxy-phenyl)-5-oxo-4,5-dihydro-[1,2]dithiolo[4,3-b]pyrrol-6-yl]-3,5-bis-trifluoromethyl-benzamide] | 2.1 ± 0.8 ×10^9/L | – | – | 16.2 ± 2.1 ×10^9/L | 13.0 ± 2.0 ×10^9/L | 15.9 | 16.8 ± 1.0 ×10^9/L | 48.2 | 21.5 ± 4.1 ×10^9/L | 90.3 | 28.8 ± 7.0 ×10^9/L | 154.9 | significantly increased white blood accounts | 23.9 ± 8.9 ×10^9/L | –
B1 | 1.8 ± 0.7 ×10^9/L | – | – | – | – | – | – | – | – | – | – | – | – | – | 14.7 ± 1.8 ×10^9/L

— patent publication US8071637B2, “Dithiolopyrrolones compounds and their therapeutic applications” (Welichem Biotech Inc., priority 2006, dated 2011)
